Residues, ends and D or L forms follow the SMILES beside them. *: point of attachment. OiPr = CC(C)O*
| Structure (SMILES) | melting point [°C] |
| --- | --- |
| O=S1CCON=C1c1nnc(-c2cccc(Cl)c2)o1 (stereo not given) | 208 to 210 |
| CCOc1cc(CCC2OC(=O)NC2=O)ccc1O (stereo not given) | 154 to 155 |
| CNC(=S)NCCCSc1nnnn1C | 99 to 101 |
| Cc1cccc(C=CC(=O)O)c1[N+](=O)[O-] | 230 to 235 |
| Cc1nn(C)c(C)c1NC(=S)n1ccc2cc(Cl)ccc21 | 165 to 166 |
| COC(OC)[C@@H]1CCCN1C(=O)[C@@H]1CCCN1C(=O)C[C@H]1CCc2ccccc2C1 | 103 to 106 |
| Cn1c(Nc2cc(C(F)(F)F)ccc2Cl)nc(C(F)(F)F)cc1=O | 158 to 159 |
| Cc1ccc2c(c1)C(=O)CCC21CCC(=O)NC1=O (stereo not given) | 252 to 254 |
| COc1cc(OC)nc(NC(=O)NS(=O)(=O)c2cscc2C)n1 | 175 to 178 |
| CN1C(=O)CCC1(O)c1cccc(C(F)(F)F)c1 (stereo not given) | 137 to 139 |
| CC(C)(C)c1cc(=O)cc(C(C)(C)C)s1 | 97 to 98 |
| CS(=O)(=O)NS(=O)(=O)c1cccc(NC(=O)NC2N=C(c3ccccc3F)c3ccccc3N(CC(=O)N3CC4CCC(CC4)C3)C2=O)c1 (racemic) | > 250 |
| COc1ccc([C@@]2(C)CNC(=O)O2)cc1OC1CCCC1 | 80 |
| CC1Cc2cc3c(cc2C(c2ccc([N+](=O)[O-])cc2)=NN1C(N)=S)OCO3 (stereo not given) | 213 to 215 |
| CC(C)OC(=O)C(C)NC(=O)C(CC(=O)O)NC(=O)C(C)N (stereo not drawn) (H-Ala-Asp-Ala-OiPr; configuration not given here) | 219 to 221 |
| CN1CCCC(C2=C(C#N)C(c3cccc4nonc34)c3c[nH]nc3N2)C1 (stereo not given) | 228 |
| COc1ccccc1N1CCN(CCn2c(=O)[nH]c3sc(Cl)cc3c2=O)CC1 | 228 to 230 |

| Structure (SMILES) | melting point [°C] |
| --- | --- |
| CCCCCCCCCCCCCCCC(=O)N[C@H]1CCCNC(=O)C1 | 99 to 100 |
| N=C(N)c1ccc(C(=O)NCCCC(=O)NCCC(=O)O)cc1 | > 250 |
| O=C(O)C(NC(=O)C(F)(F)F)c1ccc(Cl)cc1 (stereo not given) | 170 to 172 |
| CC12CCC(=O)CC1CCC1C2CCC2(C)C(OC(=O)CCl)CCC12 (stereo not given) | 135 to 136 |
| CCCCCCCC(=O)NCCCCCCOS(C)(=O)=O | 62 to 63 |
| CCOC(=O)Cc1c(C(=O)O)c(C)cn1C | 182 to 185 |
| O=C(O)c1cc(F)c(F)c(OC(F)F)c1F | 68 to 70 |
| O=C1CCCCN1Cc1ccc[nH]1 | 106 |
| C[C@]12C[C@H](c3ccc(O)cc3)C3=C4CCC(=O)C=C4CC[C@H]3[C@@H]1CCC2=O | 220 |
| CCc1ncnc(NC2CCC3(CC2)OCC(CO)O3)c1Cl (stereo not given) | 97 to 98 |
| COCCOc1ccc(/C=C/C(=O)O)c(OCC2CC2)c1 | 118 to 119 |
| CC(=O)Nc1ncc(C)cc1C(C)=O | 99 to 100 |
| COc1ccc(-c2nc3cc(Cl)ccc3o2)cc1OC | 142 to 145 |
| CCCC(=O)c1cnc2ccc(OC)cc2c1Cl | 73 to 75 |
| COc1ccc(C(O)CNCc2cccc([N+](=O)[O-])c2)cc1OC (stereo not given) | 105 to 107 |
| COc1ccc(/C=N/Nc2cc(=O)[nH]c3cc(Cl)ccc23)cc1OC1CCCC1 | 210 to 212 |
| CC(C)c1cc2c(cc1O)C(C)(C)CCC2(C)C | 79 to 80 |

Second part, the molecule after the results:

| melting point [°C] | Structure (SMILES) |
| --- | --- |
| 152 to 154 | O=c1oc(-c2ccc(OCc3ccc4ccccc4c3)cc2)cc(O)c1SCCc1ccccc1 |
| 95 to 100 | O=C(NCC1(O)CCCCCC1)c1cc(-c2cccnc2C(=O)O)ccc1Cl |
| 78 to 80 | COC1CC(C)(C)C(OC(=O)c2ccccc2)C(OC(=O)c2ccccc2)C=C1C (stereo not given) |
| 165 | Cc1cc(OCc2sc(-c3ccc(C(F)(F)F)cc3)nc2C)ccc1Cc1nn[nH]n1 |
| 181 to 182 | O=C(O)CCc1conc1-c1ccc(Cl)c(Cl)c1 |
| 194 to 195 | O=C(O)c1cccc(-c2cccc3oc(Cc4ccc(F)c(F)c4)cc23)c1 |
| 280 | CS(=O)(=O)N1CCCn2c(nc3c(N)nc4ccccc4c32)C1 |
| 88 to 90 | COC(=O)c1c(O)c(-c2ccccc2)nn1C |
| 126 | CC(C)(C)OC(=O)CN(C(=O)CN1C(=O)c2ccccc2C1=O)c1ccccc1 |
| 154 to 155 | Cc1oc(-c2ccccc2)nc1CCC(O)c1ccc(CC2OC(=O)NC2=O)cc1 (stereo not given) |
| 199 to 205 | COCN1C(=O)C(NC(=O)Nc2cccc(C(=O)NS(C)(=O)=O)c2)CN(c2ccccc2)c2ccccc21 (stereo not given) |
| 89 to 91 | Cc1cc(CC(=O)OC(C)(C)C)ccc1NC(=O)Nc1ccccc1F |
| 216 to 218 | COCC1CN(c2cc3c(cc2F)c(=O)c(C(=O)O)cn3-c2ccc(F)cc2)CCN1 (stereo not given) |
| 265 to 268 | Nc1c(-c2c[nH]nn2)c(=O)oc2ccccc12 |
| 182 to 184 | O=C(O)c1cccc2c1CCc1ccsc1-2 |
| 221 to 224 | O=C(O)c1ccc(-c2cccc3ccccc23)cc1 |
| 76 to 79 | CCOC(=O)N(c1cccc(C(F)(F)F)c1)c1ccccc1N=NC(NC(=O)CCl)(C(=O)OCC)C(=O)OCC |
| 127 to 129 | CC1(Oc2ccccc2)CN(Cc2ccc(COc3cccc4c3CN(C3CCC(=O)NC3=O)C4=O)cc2)C1 (stereo not given) |

| melting point [°C] | Structure (SMILES) |
| --- | --- |
| 200 to 201 | CCCS(=O)(=O)c1ccc(NS(=O)(=O)c2cccs2)c2[nH]c(C(=O)NCCSC(c3ccccc3)(c3ccccc3)c3ccccc3)cc12 |
| 169 to 170 | O=C(N[C@H]1CCN(C(=O)c2cc(C(F)(F)F)cc(C(F)(F)F)c2)[C@H](Cc2ccc(Cl)cc2)C1)c1cc(=O)c2ccccc2o1 |
| 169 to 172 | CN(C)C(=O)COc1ccc2c(c1)C[C@@H](NC[C@H](O)c1ccc(O)cc1)CC2 |
| 147 to 148 | Cn1nnnc1C=C(c1ccccc1)c1ccccc1 |
| 140 to 142 | CCc1nc2c(C)cc(C)nc2n1Cc1ccc(-c2ccccc2-c2c(N(C)C)c(=O)c2=O)cc1 |
| 114 | O=C(CCC1C(=S)Nc2ccccc21)NCc1ccccc1 (stereo not given) |
| 128 to 129 | O=C(C1CC1)N1CC[C@H](c2ccccc2)[C@H](O)C1 (relative stereo) |
| 134 to 135 | CCON(c1ccc([N+](=O)[O-])cc1Cl)S(=O)(=O)c1ccc(C)cc1 |
| 149 to 150 | O=C(O)CCCCCCCCn1c(-c2ccccc2)nc(-c2ccccc2)c1-c1ccccc1 |
| 127 to 128 | COc1cccc(CC(=O)O)c1OCCCc1cn(-c2cc(C(F)(F)F)ccn2)nc1C(C)C |
| 150 to 153 | O=C(O)C=Cc1ccc(-c2cnc(CSCCOc3ccccc3)o2)cc1 |
| 204 to 205 | CCn1nc(-c2ccccc2)c(C(C)=O)c(Nc2cccc3nc(C)ccc23)c1=O |
| 225 to 226 | Cc1ccc(-c2nccc(-c3cccc(C(=O)O)c3)n2)cc1 |
| 200 to 202 | CCOC(=O)Nc1ccc2nc3ccccc3c(-c3cc(C)ccc3C)c2c1 |
| 137 to 138 | NC(=O)N(O)Cc1ccc(OCCc2csc(-c3ccccc3)n2)cc1 |
| 221 to 224 | C=C1SC(=O)N(c2ccc3cc(-c4ccc(OC)c(-c5ccccc5)c4)ccc3c2)C1=O |
| 150 to 151 | N[C@@H]1C(=O)N[C@@H]1COC(=O)c1ccccc1 (relative stereo) |
| 116 to 119 | O=C(C=Cc1cccnc1)NCC=CCN1CCN(C(c2ccccc2)c2ccccc2)CC1 |

Reference: a melting point compilation (Tetko et al.; mined from patent text by program, amines drawn as free bases though some values may be those of a salt)
